# Results reported in PMC11532494 (Nature Communications, 2024).
# Where “and” joins values, the source holds several entries; their conditions need not be identical. Identical values can stand only once. Like-named read-outs stand apart in the source and are kept apart here. No end group written: not given here. *: point of attachment. AMC = Cc1cc(=O)oc2cc(N*)ccc12
# How the values were obtained:
# PsApaH (4) [1] = biological target: T1, PsApaH (4) (Pseudomonas sp. M30-35, UniProt A0A1Y0KY79); experiment: Acetyl-polyamine deacetylase assay; type: biochemical; settings: for [acetate] (individual samples): acetate released from acetyl-polyamine substrate, Sample 1-3; for [acetate] mean: mean of samples
# Target sequence in this assay (A0A1Y0KY79 1-342 limits assumed): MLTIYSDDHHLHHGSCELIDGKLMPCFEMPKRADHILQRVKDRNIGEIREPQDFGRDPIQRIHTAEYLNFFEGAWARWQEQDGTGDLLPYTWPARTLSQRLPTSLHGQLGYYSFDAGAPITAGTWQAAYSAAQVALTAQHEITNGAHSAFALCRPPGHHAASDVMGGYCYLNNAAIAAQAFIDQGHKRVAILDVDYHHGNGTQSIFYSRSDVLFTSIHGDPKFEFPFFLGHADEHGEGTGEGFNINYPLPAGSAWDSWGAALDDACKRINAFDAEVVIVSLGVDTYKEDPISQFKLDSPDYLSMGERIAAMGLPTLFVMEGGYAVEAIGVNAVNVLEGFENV
# PA1409 = PA1409 (Pseudomonas aeruginosa, UniProt Q9I3T5); experiment: Acetyl-polyamine deacetylase assay (positive control); type: biochemical; settings: for [acetate] (individual samples): PA1409, acetate released from acetyl-polyamine substrate, Sample 1-2; for [acetate] mean: mean of samples
# VsHdaH (1b) = type: biochemical, Vibrio sp.; settings: VKDAC
# KpHdaH (1b) = KpHdaH (1b) (Klebsiella pneumoniae, UniProt A0A377Z5F6); type: biochemical; settings: KpHdaH (1b)
# BsAcuC (2c) = biological target: T2, BsAcuC (2c) (Bacillus subtilis, UniProt P39067); experiment: Substrate screening assay (acyl-peptide-AMC); type: biochemical; settings: BsAcuC (2c); for [AMC]: Transform RFU in [AMC]
# T2 construct: made in house; host or cells: E. coli BL21 (DE3)
# T2 sequence (P39067 1-387): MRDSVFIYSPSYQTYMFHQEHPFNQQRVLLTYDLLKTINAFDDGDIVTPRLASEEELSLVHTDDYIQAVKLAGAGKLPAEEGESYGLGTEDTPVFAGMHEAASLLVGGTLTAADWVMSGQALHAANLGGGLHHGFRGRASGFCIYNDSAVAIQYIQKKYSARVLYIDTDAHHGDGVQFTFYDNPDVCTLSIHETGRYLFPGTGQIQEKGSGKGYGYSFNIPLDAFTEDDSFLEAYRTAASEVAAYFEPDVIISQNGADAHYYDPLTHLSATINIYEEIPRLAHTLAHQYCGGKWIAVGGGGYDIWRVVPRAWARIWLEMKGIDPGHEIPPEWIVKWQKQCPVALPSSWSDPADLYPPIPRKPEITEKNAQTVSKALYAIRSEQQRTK
# Experimental: (§1) Experiments with SIRT2 and SIRT5 were supplemented with NAD^+ (500 µM). Thereafter, a solution of trypsin (25 µL, 5.0 mg/mL; final concentration of 2.5 mg/mL) was added, and the development of the assay was allowed to proceed for 90 min at room temperature before fluorescence analysis. […] To this end, a single category is given to all conversions >48% on the heatmap. […] For the H4-derived peptide LGKbio no positive control was available.
# VcHdaH (5b) = type: biochemical, Vibrio cholerae; settings: VcHdaH (5b); for [AMC]: Transform RFU in [AMC]
# PsApaH (4) [2] = biological target: T1, PsApaH (4); type: biochemical; settings: PsApaH (4)
# Experimental: as §1
# Controls = experiment: Substrate screening assay (acyl-peptide-AMC), control enzymes; type: biochemical
# PA1409, sequence (Q9I3T5 whole entry): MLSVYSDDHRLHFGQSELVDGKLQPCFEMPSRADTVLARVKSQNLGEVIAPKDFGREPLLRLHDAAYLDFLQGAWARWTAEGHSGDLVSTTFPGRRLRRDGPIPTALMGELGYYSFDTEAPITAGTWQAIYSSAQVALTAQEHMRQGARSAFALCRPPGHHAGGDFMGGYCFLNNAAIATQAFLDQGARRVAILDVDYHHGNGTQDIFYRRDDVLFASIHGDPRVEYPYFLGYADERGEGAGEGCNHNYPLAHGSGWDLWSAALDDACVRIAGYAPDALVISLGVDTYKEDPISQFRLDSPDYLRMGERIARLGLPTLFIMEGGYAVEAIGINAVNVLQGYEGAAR
compound,measurement,setting,value
CC(=O)NCCCCN [N1-acetylputrescine],[acetate] (individual samples),PsApaH (4) [1]; time 5 min,1.6 mM (2×) and 2.1 mM
same,[acetate] (individual samples),PsApaH (4) [1]; time 10 min,8.8 mM and 8.3 mM and 8 mM
same,[acetate] (individual samples),PsApaH (4) [1]; time 20 min,12 mM and 13 mM and 12.2 mM
same,[acetate] (individual samples),PsApaH (4) [1]; time 45 min,18 mM and 16.6 mM and 17.6 mM
same,[acetate] mean,PsApaH (4) [1]; time 5 min,1.767 mM
same,[acetate] mean,PsApaH (4) [1]; time 10 min,8.367 mM
same,[acetate] mean,PsApaH (4) [1]; time 20 min,12.4 mM
same,[acetate] mean,PsApaH (4) [1]; time 45 min,17.4 mM
same,[acetate] (individual samples),PA1409; time 5 min,2.66 mM and 2.46 mM
same,[acetate] (individual samples),PA1409; time 20 min,10.76 mM and 10.61 mM
same,[acetate] (individual samples),PA1409; time 45 min,15.78 mM and 16.29 mM
same,[acetate] mean,"PA1409; PA1409, time 5 min",2.56 mM
same,[acetate] mean,"PA1409; PA1409, time 20 min",10.685 mM
same,[acetate] mean,"PA1409; PA1409, time 45 min",16.035 mM
CC(=O)NCCCCNCCCN [N8-acetylspermidine],[acetate] (individual samples),PsApaH (4) [1]; time 10 min,2.185 mM and 2.098 mM and 1.946 mM
same,[acetate] (individual samples),PsApaH (4) [1]; time 20 min,3.446 mM and 3.4674 mM and 3.489 mM
same,[acetate] (individual samples),PsApaH (4) [1]; time 45 min,4.967 mM and 5.12 mM (2×)
same,[acetate] mean,PsApaH (4) [1]; time 10 min,2.076 mM
same,[acetate] mean,PsApaH (4) [1]; time 20 min,3.4674 mM
same,[acetate] mean,PsApaH (4) [1]; time 45 min,5.069 mM
same,[acetate] (individual samples),PA1409; time 5 min,5.081 mM and 5.477 mM
same,[acetate] (individual samples),PA1409; time 10 min,19.9519 mM and 19.336 mM
same,[acetate] (individual samples),PA1409; time 20 min,23.7355 mM and 22.9876 mM
same,[acetate] (individual samples),PA1409; time 45 min,24.7914 mM and 25.3193 mM
same,[acetate] mean,"PA1409; PA1409, time 5 min",5.279 mM
same,[acetate] mean,"PA1409; PA1409, time 10 min",19.6439 mM
same,[acetate] mean,"PA1409; PA1409, time 20 min",23.3615 mM
same,[acetate] mean,"PA1409; PA1409, time 45 min",25.0553 mM
CC(=O)NCCCNCCCCNCCCN [N1-acetylspermine],[acetate] (individual samples),PsApaH (4) [1]; time 5 min,3.446 mM and 3.815 mM and 3.598 mM
same,[acetate] (individual samples),PsApaH (4) [1]; time 10 min,5.9022 mM and 5.728 mM and 6.011 mM
same,[acetate] (individual samples),PsApaH (4) [1]; time 20 min,8.6196 mM and 9.685 mM and 8.576 mM
same,[acetate] (individual samples),PsApaH (4) [1]; time 45 min,12.6414 mM and 13.25 mM and 13.0327 mM
same,[acetate] mean,PsApaH (4) [1]; time 5 min,3.62 mM
same,[acetate] mean,PsApaH (4) [1]; time 10 min,5.88 mM
same,[acetate] mean,PsApaH (4) [1]; time 20 min,8.96 mM
same,[acetate] mean,PsApaH (4) [1]; time 45 min,12.9747 mM
same,[acetate] (individual samples),PA1409; time 5 min,4.758 mM and 5.242 mM
same,[acetate] (individual samples),PA1409; time 10 min,18.4144 mM and 18.3703 mM
same,[acetate] (individual samples),PA1409; time 20 min,24.4938 mM and 25.2427 mM
same,[acetate] (individual samples),PA1409; time 45 min,26.7845 mM and 27.0048 mM
same,[acetate] mean,"PA1409; PA1409, time 5 min",5 mM
same,[acetate] mean,"PA1409; PA1409, time 10 min",18.3923 mM
same,[acetate] mean,"PA1409; PA1409, time 20 min",24.8682 mM
same,[acetate] mean,"PA1409; PA1409, time 45 min",26.8947 mM
"QPKKpal (QPKK-{AMC}; not fully specified (residue 4); printed as QPKKpal; also: palmitoyl-lysine (which Lys not given here); UniProt P04637 317-320, looked up, fragment)",Relative Fluorescene Units (RFU),"VsHdaH (1b); Transform RFU*2, Sample 1",82 RFU
same,Relative Fluorescene Units (RFU),"VsHdaH (1b); Transform RFU*2, Sample 2",-38 RFU
same,Relative Fluorescene Units (RFU),VsHdaH (1b); Sample 1,41 RFU
same,Relative Fluorescene Units (RFU),VsHdaH (1b); Sample 2,-19 RFU
same,Relative Fluorescene Units (RFU),KpHdaH (1b); Sample 1,9 RFU
same,Relative Fluorescene Units (RFU),KpHdaH (1b); Sample 2,-4 RFU
same,Relative Fluorescene Units (RFU),"KpHdaH (1b); Transform RFU*2, Sample 1",18 RFU
same,Relative Fluorescene Units (RFU),"KpHdaH (1b); Transform RFU*2, Sample 2",-8 RFU
same,Relative Fluorescene Units (RFU),BsAcuC (2c); Sample 1,139 RFU
same,Relative Fluorescene Units (RFU),BsAcuC (2c); Sample 2,15 RFU
same,[AMC],BsAcuC (2c); Sample 1,135.74 nM
same,[AMC],BsAcuC (2c); Sample 2,14.65 nM
same,Relative Fluorescene Units (RFU),"BsAcuC (2c); Transform RFU*2, Sample 1",278 RFU
same,Relative Fluorescene Units (RFU),"BsAcuC (2c); Transform RFU*2, Sample 2",30 RFU
same,[AMC],VcHdaH (5b); Sample 1,22.46 nM
same,[AMC],VcHdaH (5b); Sample 2,-39.06 nM
same,Relative Fluorescene Units (RFU),"VcHdaH (5b); Transform RFU*2, Sample 1",46 RFU
same,Relative Fluorescene Units (RFU),"VcHdaH (5b); Transform RFU*2, Sample 2",-80 RFU
same,Relative Fluorescene Units (RFU),VcHdaH (5b); Sample 1,23 RFU
same,Relative Fluorescene Units (RFU),VcHdaH (5b); Sample 2,-40 RFU
same,Relative Fluorescene Units (RFU),PsApaH (4) [2]; Sample 1,40 RFU
same,Relative Fluorescene Units (RFU),PsApaH (4) [2]; Sample 2,14 RFU
same,Relative Fluorescene Units (RFU),"PsApaH (4) [2]; Transform RFU*2, Sample 1",80 RFU
same,Relative Fluorescene Units (RFU),"PsApaH (4) [2]; Transform RFU*2, Sample 2",28 RFU
same,[AMC],Controls,8.07129 µM and 10.51367 µM
